A short description of data set [1]: Plasma concentration in BALB/c mouse at 10 mg/kg, iv at 6 hrs administered as bolus dose. The format is ADME, organism-based. Also on record: dose 10 mg/kg, route intravenous.
A short description of another data set: in vitro. Particulars: mouse, liver microsomes. (In general: Microsomes from liver hold many membrane-bound enzymes, among them those of drug oxidation.)
A short description of data set [2]: Plasma concentration in BALB/c mouse at 10 mg/kg, iv at 1 hr administered as bolus dose. It is filed as ADME, organism-based. Details: dose 10 mg/kg, route intravenous.
Data set [3] addresses Voltage-gated inwardly rectifying potassium channel KCNH2 (Homo sapiens, UniProt Q12809).
Description: Inhibition of human ERG overexpressed in HEK cells
Data set [4] in a line: Plasma concentration in BALB/c mouse at 10 mg/kg, po at 6 hrs. It is filed as ADME, organism-based. Also on record: dose 10 mg/kg, route oral.
A short description of data set [5]: Aqueous solubility in phosphate buffer at pH 6.5. It is filed as physicochemical.
The test system of data set [6] is Mus musculus. Nature of the data set: Clearance in BALB/c mouse at 10 mg/kg, iv and po. The following applies: in vivo. It is filed as ADME, organism-based. Also on record: dose 10 mg/kg, route oral.
Data set [7] is described as follows: Plasma concentration in BALB/c mouse at 10 mg/kg, po at 1 hr. The format is ADME, organism-based. Details: dose 10 mg/kg, route oral.
The test system of data set [8] is Mus musculus. As to the kind of experiment: Oral bioavailability in BALB/c mouse at 10 mg/kg. The format is ADME, organism-based. The following applies: in vivo.
For data set [9], the target named is Serine/threonine-protein kinase Chk2 (Homo sapiens, UniProt O96017).
Data set [10] deals with Plasma. Nature of the data set: Plasma protein binding in human. It is filed as ADME, cell-free.
Data set [11] in a line: Toxicity in po dosed mouse. Particulars: in vivo. The format is organism-based.
Data set [12] is described as follows: Thermodynamic solubility of the compound in water. The format is physicochemical.
Data set [13] can be described thus: Drug uptake in human SW620 cells xenografted in athymic nude mouse at 160 mg/kg, po measured at 6 to 12 hrs in presence of gemcitabine. The format is ADME, organism-based, SW-620. Details: dose 160 mg/kg, route oral. The following applies: in vivo.
The target in data set [14] is Cyclin-dependent kinase 1 (Homo sapiens, UniProt P06493).
The species entered for data set [15] is Mus musculus. Particulars: SW-620, 160 mg/kg.
Data set [16] deals with Mus musculus. Nature of the data set: Volume of distribution at steady state in BALB/c mouse at 10 mg/kg, iv and po. Details: dose 10 mg/kg, route oral. The format is ADME, organism-based. The following applies: in vivo.
The test system of another data set is Caco-2. The following applies: human.
The species entered for data set [17] is Mus musculus. The following applies: SW-620, 160 mg/kg. This is another data set of the same source.
Another data set concerns the target Nav1.5 (Homo sapiens, UniProt Q14524). Nature of the data set: Inhibition of human Nav1.5 at 10 uM.
The target in data set [18] is T1, Serine/threonine-protein kinase Chk1 (Homo sapiens, UniProt O14757).
T1 sequence (O14757 whole entry): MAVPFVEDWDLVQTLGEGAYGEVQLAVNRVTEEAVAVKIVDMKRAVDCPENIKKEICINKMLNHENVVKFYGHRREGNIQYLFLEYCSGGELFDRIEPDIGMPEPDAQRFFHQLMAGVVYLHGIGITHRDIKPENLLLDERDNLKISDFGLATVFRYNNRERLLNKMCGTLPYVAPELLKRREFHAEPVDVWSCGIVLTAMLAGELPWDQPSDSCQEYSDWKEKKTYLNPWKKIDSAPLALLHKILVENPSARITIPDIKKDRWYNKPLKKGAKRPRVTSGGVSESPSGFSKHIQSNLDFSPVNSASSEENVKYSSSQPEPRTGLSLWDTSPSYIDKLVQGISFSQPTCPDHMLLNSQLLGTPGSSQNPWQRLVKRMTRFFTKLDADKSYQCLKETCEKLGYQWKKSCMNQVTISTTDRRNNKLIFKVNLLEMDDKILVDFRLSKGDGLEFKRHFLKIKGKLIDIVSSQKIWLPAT

The subject of data set [19] is Mus musculus. As to the kind of experiment: Inhibition of CHK1 autophosphorylation in human SW620 cells xenografted in athymic nude mouse at 300 mg/kg, po measured at 6 hrs by Western blot analysis in presence of gemcitabine. The format is functional, organism-based. Details: dose 300 mg/kg. Particulars: SW-620. (In xenograft studies the graft and the host belong to different species.)

Another data set has as its target Kv4.3/KchIP2 (Homo sapiens, UniProt Q9NS61+Q9UK17). Nature of the data set: Inhibition of human Kv4.3/KchIP2 at 10 uM. The format is protein-complex assay.
For data set [20], the target named is Interleukin-1 receptor-associated kinase 1 (Homo sapiens) (UniProt P51617). Nature of the data set: Inhibition of human IRAK1 at 1 uM by radiometric assay in presence of ATP.
Data set [21] has as its target Potassium/sodium hyperpolarization-activated cyclic nucleotide-gated channel 4 (Homo sapiens) (UniProt Q9Y3Q4). Nature of the data set: Inhibition of human HCN4 at 10 uM.
Data set [22] can be described thus: Drug uptake in human SW620 cells xenografted in athymic nude mouse at 300 mg/kg, po measured at 6 to 12 hrs in presence of gemcitabine. Also on record: dose 300 mg/kg, route oral. The format is ADME, organism-based, SW-620. Particulars: in vivo.
In data set [23] the test system is Mus musculus. As to the kind of experiment: Inhibition of CHK1 in human SW620 cells xenografted in athymic nude mouse at 300 mg/kg, po measured at 12 hrs by Western blot analysis in presence of gemcitabine. The format is functional, organism-based. Details: dose 300 mg/kg. Particulars: SW-620.
The target of a further data set is KCNQ1/MINK (IKs) (Homo sapiens, UniProt P15382+P51787). As to the kind of experiment: Inhibition of human KCNQ1/MINK at 10 uM. It is filed as protein-complex assay.
In another data set the target is Kir2.1 (Homo sapiens, UniProt P63252). Nature of the data set: Inhibition of human Kir2.1 at 10 uM.
Data set [24] concerns Mus musculus. Nature of the data set: Toxicity in athymic mouse xenografted with human Calu6 cells assessed as body weight loss at 75 mg/kg, po tid for 7 days. It is filed as organism-based, Calu-6. Also on record: dose 75 mg/kg, route oral. Particulars: in vivo, 168 h.
In data set [25] the target is Ribosomal protein S6 kinase alpha-3 (Homo sapiens) (UniProt P51812). As to the kind of experiment: Inhibition of human RSK2 at 1 uM by radiometric assay in presence of ATP.
The target of data set [26] is Potassium voltage-gated channel subfamily A member 5 (Homo sapiens) (UniProt P22460). Nature of the data set: Inhibition of human Kv1.5 at 10 uM.
For data set [27], the target named is Serine/threonine-protein kinase BRSK1 (Homo sapiens) (UniProt Q8TDC3). Nature of the data set: Inhibition of human BRSK1 at 1 uM by radiometric assay in presence of ATP.
For another data set, the target named is Cav1.2 (Homo sapiens, UniProt Q13936). Nature of the data set: Inhibition of human Cav1.2 at 10 uM.
The test system of data set [28] is Mus musculus. Nature of the data set: Toxicity in athymic mouse xenografted with human HT-29 cells assessed as body weight loss at 75 mg/kg, po tid for 7 days. It is filed as organism-based. Also on record: dose 75 mg/kg, route oral. Particulars: in vivo, 168 h.
The target in data set [29] is AMP-activated protein kinase, AMPK (Homo sapiens) (UniProt P54646+O43741+P54619+Q9UGJ0+Q9Y478+Q13131+Q9UGI9). Nature of the data set: Inhibition of human AMPK at 1 uM by radiometric assay in presence of ATP. It is filed as protein-complex assay.
In data set [30] the target is High affinity nerve growth factor receptor (Homo sapiens) (UniProt P04629). Nature of the data set: Inhibition of human TRKA at 1 uM by radiometric assay in presence of ATP.
The test system of data set [31] is Mus musculus. Nature of the data set: Toxicity in athymic mouse xenografted with human SW620 cells assessed as body weight loss at 75 mg/kg, po tid for 4 days. It is filed as organism-based, SW-620. Details: dose 75 mg/kg, route oral. Particulars: in vivo, 96 h.
Data set [32] concerns the target Ribosomal protein S6 kinase alpha-1 (Homo sapiens) (UniProt Q15418). Nature of the data set: Inhibition of human RSK1 at 1 uM by radiometric assay in presence of ATP.
The subject of data set [33] is Plasma. Nature of the data set: Dose normalized plasma concentration in BALB/c mouse at 1 mg/kg, iv at 1 hr administered as bolus dose. The format is ADME, organism-based. Details: dose 1 mg/kg, route intravenous. The following applies: in vivo.
Data set [34] concerns Plasma. As to the kind of experiment: Dose normalized plasma concentration in BALB/c mouse at 1 mg/kg, iv at 6 hrs administered as bolus dose. The format is ADME, organism-based. Also on record: dose 1 mg/kg, route intravenous. The following applies: in vivo.

Structures are written as SMILES. Converted amounts (≈) assume the structure as drawn. The source made the active and inactive calls. No cut-off for these calls is given here.

Sequence of Voltage-gated inwardly rectifying potassium channel KCNH2 (Q12809 whole entry): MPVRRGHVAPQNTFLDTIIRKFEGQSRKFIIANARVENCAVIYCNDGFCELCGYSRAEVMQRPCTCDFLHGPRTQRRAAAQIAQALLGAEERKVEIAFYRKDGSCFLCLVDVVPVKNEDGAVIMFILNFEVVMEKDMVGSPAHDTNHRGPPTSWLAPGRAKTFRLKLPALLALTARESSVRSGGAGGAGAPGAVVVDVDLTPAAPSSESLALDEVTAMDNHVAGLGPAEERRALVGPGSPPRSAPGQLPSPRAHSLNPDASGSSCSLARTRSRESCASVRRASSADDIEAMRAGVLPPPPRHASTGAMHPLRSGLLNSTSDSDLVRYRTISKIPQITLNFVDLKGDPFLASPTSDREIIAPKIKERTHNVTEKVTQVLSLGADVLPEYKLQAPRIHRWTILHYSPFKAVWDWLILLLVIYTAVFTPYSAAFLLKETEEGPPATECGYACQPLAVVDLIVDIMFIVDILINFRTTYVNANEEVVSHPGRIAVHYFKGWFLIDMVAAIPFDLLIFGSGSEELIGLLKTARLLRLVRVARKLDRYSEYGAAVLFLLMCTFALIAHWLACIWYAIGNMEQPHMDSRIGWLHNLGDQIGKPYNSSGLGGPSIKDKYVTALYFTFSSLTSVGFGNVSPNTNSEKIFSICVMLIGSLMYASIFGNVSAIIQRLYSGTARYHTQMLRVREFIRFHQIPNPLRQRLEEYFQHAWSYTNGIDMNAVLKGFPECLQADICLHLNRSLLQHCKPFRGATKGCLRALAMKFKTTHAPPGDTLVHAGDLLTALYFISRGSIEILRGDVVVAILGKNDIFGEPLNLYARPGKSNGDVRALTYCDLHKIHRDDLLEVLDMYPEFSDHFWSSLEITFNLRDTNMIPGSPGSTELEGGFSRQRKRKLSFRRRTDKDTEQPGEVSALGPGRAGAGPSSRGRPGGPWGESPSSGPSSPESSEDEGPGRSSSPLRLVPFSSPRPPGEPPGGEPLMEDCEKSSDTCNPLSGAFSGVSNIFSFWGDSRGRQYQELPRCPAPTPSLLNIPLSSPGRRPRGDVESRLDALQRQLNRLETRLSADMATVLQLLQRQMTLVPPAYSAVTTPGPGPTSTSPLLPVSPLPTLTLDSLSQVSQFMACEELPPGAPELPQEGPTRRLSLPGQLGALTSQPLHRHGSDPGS
Sequence of Serine/threonine-protein kinase Chk2 (O96017 whole entry): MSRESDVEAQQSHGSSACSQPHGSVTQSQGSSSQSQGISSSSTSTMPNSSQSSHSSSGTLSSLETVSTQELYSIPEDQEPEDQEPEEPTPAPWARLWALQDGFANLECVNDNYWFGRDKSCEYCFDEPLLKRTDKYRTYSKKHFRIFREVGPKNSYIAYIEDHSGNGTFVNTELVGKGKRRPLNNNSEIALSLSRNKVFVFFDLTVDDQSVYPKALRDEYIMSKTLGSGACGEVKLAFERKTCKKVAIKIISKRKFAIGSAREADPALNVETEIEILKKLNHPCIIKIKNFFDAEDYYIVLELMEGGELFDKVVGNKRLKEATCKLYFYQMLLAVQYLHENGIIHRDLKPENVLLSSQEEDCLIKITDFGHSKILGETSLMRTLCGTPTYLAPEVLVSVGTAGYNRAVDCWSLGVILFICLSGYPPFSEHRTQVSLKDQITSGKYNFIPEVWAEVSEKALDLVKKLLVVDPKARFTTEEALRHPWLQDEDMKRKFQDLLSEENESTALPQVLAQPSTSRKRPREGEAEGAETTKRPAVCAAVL
Sequence of Cyclin-dependent kinase 1 (P06493 whole entry): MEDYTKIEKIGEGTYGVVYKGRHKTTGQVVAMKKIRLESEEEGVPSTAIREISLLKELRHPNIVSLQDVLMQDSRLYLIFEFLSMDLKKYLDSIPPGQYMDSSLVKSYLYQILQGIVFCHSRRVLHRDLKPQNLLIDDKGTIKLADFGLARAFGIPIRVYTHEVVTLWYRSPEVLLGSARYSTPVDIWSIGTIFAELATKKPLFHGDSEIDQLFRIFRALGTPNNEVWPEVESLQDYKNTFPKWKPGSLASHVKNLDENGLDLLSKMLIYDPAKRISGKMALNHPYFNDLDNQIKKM
Sequence of Serine/threonine-protein kinase BRSK1 (Homo sapiens) (Q8TDC3 whole entry): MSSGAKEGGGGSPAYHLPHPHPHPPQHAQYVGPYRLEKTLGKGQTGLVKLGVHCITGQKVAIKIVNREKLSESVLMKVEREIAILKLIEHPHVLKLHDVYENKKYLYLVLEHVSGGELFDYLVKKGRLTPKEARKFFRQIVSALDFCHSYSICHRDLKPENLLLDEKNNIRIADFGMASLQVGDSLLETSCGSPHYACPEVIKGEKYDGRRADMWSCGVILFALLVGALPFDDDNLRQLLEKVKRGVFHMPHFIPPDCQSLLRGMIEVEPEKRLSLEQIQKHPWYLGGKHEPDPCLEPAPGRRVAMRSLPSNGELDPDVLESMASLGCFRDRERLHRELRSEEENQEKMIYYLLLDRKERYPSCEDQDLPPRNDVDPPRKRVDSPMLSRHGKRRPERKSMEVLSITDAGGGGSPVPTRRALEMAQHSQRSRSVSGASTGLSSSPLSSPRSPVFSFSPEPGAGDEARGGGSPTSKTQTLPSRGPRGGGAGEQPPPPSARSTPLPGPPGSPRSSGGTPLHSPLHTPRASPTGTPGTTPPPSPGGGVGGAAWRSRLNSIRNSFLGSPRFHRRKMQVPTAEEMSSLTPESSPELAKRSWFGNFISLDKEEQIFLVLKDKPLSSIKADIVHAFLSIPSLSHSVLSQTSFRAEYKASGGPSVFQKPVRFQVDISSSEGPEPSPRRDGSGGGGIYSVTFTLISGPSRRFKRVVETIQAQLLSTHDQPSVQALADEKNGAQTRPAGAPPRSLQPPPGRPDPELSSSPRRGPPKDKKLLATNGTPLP
Sequence of High affinity nerve growth factor receptor (Homo sapiens) (P04629 33-796 limits assumed): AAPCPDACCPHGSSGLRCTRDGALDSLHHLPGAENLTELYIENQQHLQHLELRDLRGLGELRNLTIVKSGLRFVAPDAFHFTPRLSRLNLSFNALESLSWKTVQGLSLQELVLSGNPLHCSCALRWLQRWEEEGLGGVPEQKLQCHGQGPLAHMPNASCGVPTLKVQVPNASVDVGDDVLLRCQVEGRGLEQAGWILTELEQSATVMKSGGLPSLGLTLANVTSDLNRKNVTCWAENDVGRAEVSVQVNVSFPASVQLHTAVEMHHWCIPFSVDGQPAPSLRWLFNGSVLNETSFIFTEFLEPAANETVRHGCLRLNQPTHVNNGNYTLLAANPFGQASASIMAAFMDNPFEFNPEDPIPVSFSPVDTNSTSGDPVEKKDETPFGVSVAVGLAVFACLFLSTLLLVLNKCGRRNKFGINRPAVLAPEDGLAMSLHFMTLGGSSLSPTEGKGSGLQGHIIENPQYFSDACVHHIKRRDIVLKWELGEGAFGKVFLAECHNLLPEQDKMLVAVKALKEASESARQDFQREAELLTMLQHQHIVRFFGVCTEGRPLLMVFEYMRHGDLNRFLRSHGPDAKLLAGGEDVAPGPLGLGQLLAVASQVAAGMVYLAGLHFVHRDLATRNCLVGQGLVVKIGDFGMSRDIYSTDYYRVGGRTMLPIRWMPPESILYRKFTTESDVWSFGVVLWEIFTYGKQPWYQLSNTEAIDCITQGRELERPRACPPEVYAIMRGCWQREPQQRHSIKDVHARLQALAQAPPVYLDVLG
Sequence of Kir2.1 (P63252 whole entry): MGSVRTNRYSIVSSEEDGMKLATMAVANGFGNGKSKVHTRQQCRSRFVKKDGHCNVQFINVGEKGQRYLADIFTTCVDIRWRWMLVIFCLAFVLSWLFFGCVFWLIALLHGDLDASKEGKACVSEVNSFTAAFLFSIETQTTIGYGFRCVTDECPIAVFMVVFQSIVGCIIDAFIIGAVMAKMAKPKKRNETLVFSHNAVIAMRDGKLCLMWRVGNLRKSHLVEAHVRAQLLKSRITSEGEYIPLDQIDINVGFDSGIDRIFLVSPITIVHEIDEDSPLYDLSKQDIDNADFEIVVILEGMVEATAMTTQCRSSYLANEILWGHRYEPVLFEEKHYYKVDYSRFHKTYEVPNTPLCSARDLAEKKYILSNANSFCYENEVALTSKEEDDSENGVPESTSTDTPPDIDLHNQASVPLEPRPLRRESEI
Sequence of Interleukin-1 receptor-associated kinase 1 (Homo sapiens) (P51617 whole entry, looked up): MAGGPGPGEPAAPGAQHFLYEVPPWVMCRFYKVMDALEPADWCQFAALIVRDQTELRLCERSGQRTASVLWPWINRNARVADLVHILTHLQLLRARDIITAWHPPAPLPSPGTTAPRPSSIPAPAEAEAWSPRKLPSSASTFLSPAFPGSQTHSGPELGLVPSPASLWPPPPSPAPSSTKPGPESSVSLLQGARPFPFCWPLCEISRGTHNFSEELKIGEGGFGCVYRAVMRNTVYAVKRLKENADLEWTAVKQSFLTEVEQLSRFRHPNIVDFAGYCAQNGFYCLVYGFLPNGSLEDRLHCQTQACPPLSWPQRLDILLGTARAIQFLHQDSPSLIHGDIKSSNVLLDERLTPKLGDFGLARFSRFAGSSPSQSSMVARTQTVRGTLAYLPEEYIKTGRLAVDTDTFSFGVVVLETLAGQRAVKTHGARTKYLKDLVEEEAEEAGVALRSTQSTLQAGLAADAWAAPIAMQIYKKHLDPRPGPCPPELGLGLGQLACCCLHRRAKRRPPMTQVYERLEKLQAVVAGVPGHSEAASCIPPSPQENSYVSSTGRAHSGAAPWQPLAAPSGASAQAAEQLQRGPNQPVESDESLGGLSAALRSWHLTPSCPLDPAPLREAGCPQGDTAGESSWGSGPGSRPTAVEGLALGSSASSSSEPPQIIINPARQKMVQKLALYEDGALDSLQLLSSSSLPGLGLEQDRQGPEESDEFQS
Description for Caco-2: Permeability across apical to basolateral side in human Caco2 cells

Turning to `CNc1cc(Nc2cnc(C#N)c(O[C@H](C)CN(C)C)n2)ncc1-c1cnn(C)c1`, the concentration at 6 h in data set [1] turned out to be 45 nM; in data set [4], 57 nM. The metabolised at 0.5 h in “in vitro” was 30%. Moreover, the concentration at 1 h in data set [2] came to 910 nM; in [7], 555 nM. Also, the half-maximal inhibitory concentration (IC50) – broadly, the concentration that gives 50% inhibition – in data set [3] came out at 12 µM; in [9] it was 3.2 µM; in data set [14], 10 µM. Also, in data set [5], the thermodynamic solubility (as a rule, the concentration in solution at equilibrium with solid) is > 8000 µg/mL. Further, the CL in the data set on Mus musculus [6] was 0.132 L/h. In the data set with Mus musculus [8], this compound displayed an F of 48%. Moreover, the PPB with Plasma [10] amounted to 70%. Besides, the MTD in data set [11] is 160 mg/kg. Besides, in data set [12], the Therm_solubility was found to be 100 µg/mL. The Drug uptake result in data set [13] is on record as “Active”. Besides, the inhibition – broadly, the relative decrease from the control value, in per cent – in the data set filed under Mus musculus [15] was “inactive”. The compound also returned a Vdss in the data set with Mus musculus [16] of 0.209 L. In addition, in the data set on Caco-2, the permeability turned out to be 8.8 ×10⁻⁶ cm/s. In addition, in the data set filed under Mus musculus [17], the inhibition result was “Active”.
In the case of `COc1cc(Nc2cnc(C#N)c(O[C@H](C)CN(C)C)n2)ncc1-c1cnn(C)c1`, the inhibition at 10 µM against Nav1.5, at Kv4.3/KchIP2, against KCNQ1/MINK (IKs), on Kir2.1 and at Cav1.2 was < 25% in each case. Also, the concentration at 6 h in [1] was 27 nM; in data set [4], 52 nM. For the same compound, the metabolised at 0.5 h in “in vitro” was 38%. Moreover, the IC50 in [18] was 0.0077 µM; in data set [3] it was 5 µM; in data set [9] it was > 10 µM; in data set [14] it was > 10 µM. The inhibition entry in the data set with Mus musculus [19] and in the data set on Mus musculus [23] was “Active” each time. Also, the concentration at 1 h in data set [2] was determined as 1850 nM; in data set [7] it was 1120 nM. The inhibition in data set [20] was > 80%; in [21], < 25%; in data set [25] it was > 80%; in [26], < 25%; in [27] it was > 80%; in data set [29] it was > 80%. Also, the inhibition in data set [30] and in data set [32] was > 80% throughout. Also, the Drug uptake entry in data set [22] is listed as “Active”. The thermodynamic solubility in [5] turned out to be 6200 µg/mL (≈ 15.2 mM). In addition, in the data set with Mus musculus [6], the clearance came to 0.125 L/h. Besides, the F in the data set with Mus musculus [8] was found to be 61%. Moreover, the Activity entry with Mus musculus [24], in the data set on Mus musculus [28] and in the data set on Mus musculus [31] was “Non-toxic” each time. The compound further had a PPB with Plasma [10] of 82%. In addition, in data set [11], the MTD is > 300 mg/kg. The Therm_solubility in [12] was 70 µg/mL. Besides, the Vdss in the data set on Mus musculus [16] stood at 0.113 L. In the data set with Caco-2, the permeability was determined as 29 ×10⁻⁶ cm/s.
`CNc1cc(Nc2cnc(C#N)c(O[C@@H]3CCN(C)C3)n2)ncc1-c1cnn(C)c1` had a metabolised at 0.5 h in the data set “in vitro” of 17%. The same compound gave an IC50 in data set [18] of 0.0044 µM. For the same compound, the figures for the Cp/dose in the data set with Plasma [33] and in the data set with Plasma [34] were 320 nM and < 20 nM, respectively. For the same compound, in [4], the concentration at 6 h was 12 nM. The concentration at 1 h in [7] turned out to be 193 nM.

The record behind these values is ChEMBL document CHEMBL2203133 (J Med Chem, 2012).
